According to patent US11541055B2, “Inhibitors of human immunodeficiency virus replication” (ViiV Healthcare UK (No. 5) LIMITED, priority 2018, dated 2023):

Assays:
[1] = tested on: recombinant NL4-3 virus (Renilla luciferase) in MT-2 cells; assay: HIV cell culture assay (antiviral activity, luciferase readout); type: cell-based; conditions: Renilla, NL43
In short: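 MT-2 cells were infected with recombinant NL4-3 virus carrying Renilla luciferase in place of part of nef. Cells were cultured 4–5 days with serially diluted compound, and luciferase was measured with a live-cell substrate. EC50 was calculated from the median effect equation.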

[2] = Compound cytotoxicity, XTT-based colorimetric assay; type: cell-based; conditions: human; uninfected MT2 cells, day 4, XTT
In short: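 Run under the antiviral-assay protocol but without virus. Viability was read on day 4 and CC50 values were derived from the readout.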

Work on O=C(Cn1nc(C(F)F)c2c1C(F)(F)[C@@H]1C[C@H]21)N[C@@H](Cc1cc(F)cc(F)c1)c1nc2cc(-c3cccnn3)ccc2c(=O)n1-c1ccc(Cl)c2c(NS(=O)(=O)C3CC3)nn(CC(F)F)c12 (atropisomer, axis not shown; (P)) [Example 89, N—((S)-1-((3P)-3-(4-chloro-3-(cyclopropanesulfonamido)-1-(2,2-difluoroethyl)-1H-indazol-7-yl)-4-oxo-7-(pyridazin-3-yl)-3,4-dihydroquinazolin-2-yl)-2-(3,5-difluorophenyl)ethyl)-2-((3bS,4aR)-3-(difluoromethyl)-5,5-difluoro-3b,4,4a,5-tetrahydro-1H-cyclopropa[3,4]cyclopenta[1,2-c]pyrazol-1-yl)acetamide] yielded an EC50 [1] of 0.075 nM and a CC50 at 4 days [2] greater than 500 nM.

CCOc1cc(-c2ccc3c(=O)n(-c4ccc(Cl)c5c(NS(C)(=O)=O)nn(C)c45)c([C@H](Cc4cc(F)cc(F)c4)NC(=O)Cn4nc(C(F)F)c5c4C(F)(F)[C@@H]4C[C@H]54)nc3c2)nc(C)n1 (atropisomer, axis not shown; (P)) [Example 69, N—((S)-1-((3P)-3-(4-chloro-1-methyl-3-(methylsulfonamido)-1H-indazol-7-yl)-7-(6-ethoxy-2-methylpyrimidin-4-yl)-4-oxo-3,4-dihydroquinazolin-2-yl)-2-(3,5-difluorophenyl)ethyl)-2-((3bS,4aR)-3-(difluoromethyl)-5,5-difluoro-3b,4,4a,5-tetrahydro-1H-cyclopropa[3,4]cyclopenta[1,2-c]pyrazol-1-yl)acetamide] showed an EC50 [1] of 0.43 nM and a CC50 at 4 days [2] greater than 500 nM.

CN(c1ccc(-c2ccc3c(=O)n(-c4ccc(Cl)c5c(NS(=O)(=O)C6CC6)nn(CC(F)F)c45)c([C@H](Cc4cc(F)cc(F)c4)NC(=O)Cn4nc(C(F)F)c5c4C(F)(F)[C@@H]4C[C@H]54)nc3c2)cc1)S(C)(=O)=O (atropisomer, axis not shown) [Example 147, N-[(1S)-1-{3-[4-chloro-3-cyclopropanesulfonamido-1-(2,2-difluoroethyl)-1H-indazol-7-yl]-7-[4-(N-methylmethanesulfonamido)phenyl]-4-oxo-3,4-dihydroquinazolin-2-yl}-2-(3,5-difluorophenyl)ethyl]-2-[(2S,4R)-9-(difluoromethyl)-5,5-difluoro-7,8-diazatricyclo[4.3.0.0^2,^4]nona-1(6),8-dien-7-yl]acetamide] showed an EC50 [1] of 0.34 nM and a CC50 at 4 days [2] greater than 500 nM.

With CCc1ccnc(-c2ccc3c(=O)n(-c4ccc(Cl)c5c(NS(=O)(=O)C6CC6)nn(CC(F)F)c45)c([C@H](Cc4cc(F)cc(F)c4)NC(=O)Cn4nc(C(F)F)c5c4C(F)(F)[C@@H]4C[C@H]54)nc3c2)n1 (atropisomer, axis not shown; (P)) [Example 93, N—((S)-1-((3P)-3-(4-chloro-3-(cyclopropanesulfonamido)-1-(2,2-difluoroethyl)-1H-indazol-7-yl)-7-(4-ethylpyrimidin-2-yl)-4-oxo-3,4-dihydroquinazolin-2-yl)-2-(3,5-difluorophenyl)ethyl)-2-((3bS,4aR)-3-(difluoromethyl)-5,5-difluoro-3b,4,4a,5-tetrahydro-1H-cyclopropa[3,4]cyclopenta[1,2-c]pyrazol-1-yl)acetamide] the EC50 [1] was 0.18 nM and the CC50 at 4 days [2] was greater than 500 nM.

COCc1nc(C)cc(-c2ccc3c(=O)n(-c4ccc(Cl)c5c(NS(C)(=O)=O)nn(C)c45)c([C@H](Cc4cc(F)cc(F)c4)NC(=O)Cn4nc(C(F)F)c5c4C(F)(F)[C@@H]4C[C@H]54)nc3c2)n1 (atropisomer, axis not shown; (P)) [Example 75, N—((S)-1-((3P)-3-(4-chloro-1-methyl-3-(methylsulfonamido)-1H-indazol-7-yl)-7-(2-(methoxymethyl)-6-methylpyrimidin-4-yl)-4-oxo-3,4-dihydroquinazolin-2-yl)-2-(3,5-difluorophenyl)ethyl)-2-((3bS,4aR)-3-(difluoromethyl)-5,5-difluoro-3b,4,4a,5-tetrahydro-1H-cyclopropa[3,4]cyclopenta[1,2-c]pyrazol-1-yl)acetamide] gave an EC50 [1] of 0.077 nM and a CC50 at 4 days [2] greater than 500 nM.

In the case of Cn1nc(NS(C)(=O)=O)c2c(Cl)ccc(-n3c([C@H](Cc4cc(F)cc(F)c4)NC(=O)Cn4nc(C(F)F)c5c4C(F)(F)[C@@H]4C[C@H]54)nc4cc(-c5cccc(S(=O)(=O)C(C)(C)C)c5)ccc4c3=O)c21 (atropisomer, axis not shown; (P)) [Example 33, N—((S)-1-(7-(3-(tert-butylsulfonyl)phenyl)-(3P)-3-(4-chloro-1-methyl-3-(methylsulfonamido)-1H-indazol-7-yl)-4-oxo-3,4-dihydroquinazolin-2-yl)-2-(3,5-difluorophenyl)ethyl)-2-((3bS,4aR)-3-(difluoromethyl)-5,5-difluoro-3b,4,4a,5-tetrahydro-1H-cyclopropa[3,4]cyclopenta[1,2-c]pyrazol-1-yl)acetamide], the EC50 [1] is reported as 0.12 nM and the CC50 at 4 days [2] is reported as greater than 500 nM.

Cc1ncc(F)c(-c2ccc3c(=O)n(-c4ccc(C)c5c(NS(C)(=O)=O)nn(C)c45)c([C@H](Cc4cc(F)cc(F)c4)NC(=O)Cn4nc(C(F)F)c5c4C(F)(F)[C@@H]4C[C@H]54)nc3c2)n1 (atropisomer, axis not shown) [Example 140, 2-[(2S,4R)-9-(difluoromethyl)-5,5-difluoro-7,8-diazatricyclo[4.3.0.0^2,^4]nona-1(6),8-dien-7-yl]-N-[(1S)-2-(3,5-difluorophenyl)-1-[7-(5-fluoro-2-methylpyrimidin-4-yl)-3-(3-methanesulfonamido-1,4-dimethyl-1H-indazol-7-yl)-4-oxo-3,4-dihydroquinazolin-2-yl]ethyl]acetamide] showed an EC50 [1] of 0.097 nM and a CC50 at 4 days [2] greater than 500 nM.

CCc1cc(-c2ccc3c(=O)n(-c4ccc(Cl)c5c(NS(C)(=O)=O)nn(C)c45)c([C@H](Cc4cc(F)cc(F)c4)NC(=O)Cn4nc(C(F)F)c5c4C(F)(F)[C@@H]4C[C@H]54)nc3c2)nc(C)n1 (atropisomer, axis not shown; (P)) [Example 62, N—((S)-1-((3P)-3-(4-chloro-1-methyl-3-(methylsulfonamido)-1H-indazol-7-yl)-7-(6-ethyl-2-methylpyrimidin-4-yl)-4-oxo-3,4-dihydroquinazolin-2-yl)-2-(3,5-difluorophenyl)ethyl)-2-((3bS,4aR)-3-(difluoromethyl)-5,5-difluoro-3b,4,4a,5-tetrahydro-1H-cyclopropa[3,4]cyclopenta[1,2-c]pyrazol-1-yl)acetamide] showed an EC50 [1] of 0.11 nM and a CC50 at 4 days [2] greater than 500 nM.

CS(=O)(=O)Nc1nn(CC(F)F)c2c(-n3c([C@H](Cc4cc(F)cc(F)c4)NC(=O)Cn4nc(C(F)F)c5c4C(F)(F)[C@@H]4C[C@H]54)nc4cc(-c5nccc(C(F)(F)F)n5)ccc4c3=O)ccc(Cl)c12 (atropisomer, axis not shown) [Example 128, N-[(1S)-1-{3-[4-chloro-1-(2,2-difluoroethyl)-3-methanesulfonamido-1H-indazol-7-yl]-4-oxo-7-[4-(trifluoromethyl)pyrimidin-2-yl]-3,4-dihydroquinazolin-2-yl}-2-(3,5-difluorophenyl)ethyl]-2-[(2S,4R)-9-(difluoromethyl)-5,5-difluoro-7,8-diazatricyclo[4.3.0.0^2,^4]nona-1(6),8-dien-7-yl]acetamide] showed an EC50 [1] of 0.079 nM and a CC50 at 4 days [2] greater than 500 nM.

Work on Cn1nc(NS(C)(=O)=O)c2c(Cl)ccc(-n3c([C@H](Cc4cc(F)cc(F)c4)NC(=O)Cn4nc(C(F)F)c5c4C(F)(F)[C@@H]4C[C@H]54)nc4cc(-c5ncccc5F)ccc4c3=O)c21 (atropisomer, axis not shown; (P)) [Example 21, N—((S)-1-((3P)-3-(4-chloro-1-methyl-3-(methylsulfonamido)-1H-indazol-7-yl)-7-(3-fluoropyridin-2-yl)-4-oxo-3,4-dihydroquinazolin-2-yl)-2-(3,5-difluorophenyl)ethyl)-2-((3bS,4aR)-3-(difluoromethyl)-5,5-difluoro-3b,4,4a,5-tetrahydro-1H-cyclopropa[3,4]cyclopenta[1,2-c]pyrazol-1-yl)acetamide] yielded an EC50 [1] of 0.091 nM and a CC50 at 4 days [2] greater than 500 nM.

For Cc1nccc(-c2ccc3c(=O)n(-c4ccc(Cl)c5c(NS(C)(=O)=O)nn(CC(F)F)c45)c([C@H](Cc4cc(F)cc(F)c4)NC(=O)Cn4nc(C(F)F)c5c4C(F)(F)[C@@H]4C[C@H]54)nc3c2)n1 (atropisomer, axis not shown) [Example 121, N-[(1S)-1-{3-[4-chloro-1-(2,2-difluoroethyl)-3-methanesulfonamido-1H-indazol-7-yl]-7-(2-methylpyrimidin-4-yl)-4-oxo-3,4-dihydroquinazolin-2-yl}-2-(3,5-difluorophenyl)ethyl]-2-[(2S,4R)-9-(difluoromethyl)-5,5-difluoro-7,8-diazatricyclo[4.3.0.0^2,^4]nona-1(6),8-dien-7-yl]acetamide], the EC50 [1] was 0.067 nM and the CC50 at 4 days [2] was greater than 500 nM.

With Cc1nnc(-c2ccc3c(=O)n(-c4ccc(Cl)c5c(NS(=O)(=O)C6CC6)nn(CC(F)F)c45)c([C@H](Cc4cc(F)cc(F)c4)NC(=O)Cn4nc(C(F)F)c5c4C(F)(F)[C@@H]4C[C@H]54)nc3c2)nc1C (atropisomer, axis not shown; (P)) [Example 87, N—((S)-1-((3P)-3-(4-chloro-3-(cyclopropanesulfonamido)-1-(2,2-difluoroethyl)-1H-indazol-7-yl)-7-(5,6-dimethyl-1,2,4-triazin-3-yl)-4-oxo-3,4-dihydroquinazolin-2-yl)-2-(3,5-difluorophenyl)ethyl)-2-((3bS,4aR)-3-(difluoromethyl)-5,5-difluoro-3b,4,4a,5-tetrahydro-1H-cyclopropa[3,4]cyclopenta[1,2-c]pyrazol-1-yl)acetamide] the EC50 [1] was 0.058 nM and the CC50 at 4 days [2] was greater than 500 nM.
